Measured values published in publication PMC5330453, “Synthesis and biological evaluation of dihydropyrano-[2,3-c]pyrazoles as a new class of PPARγ partial agonists” (PLoS ONE, 2017).
“And” between values parts separate entries of the source, which are not always exact repeats. Equal values may be shown once. Read-outs that look alike come from different tables or passages of the source.

Assays:
hPPARγ LBD [1] = target: T1, hPPARγ LBD (Homo sapiens, UniProt P37231); experiment: TR-FRET competitive binding assay (LanthaScreen), displacement of a fluorescent pan PPAR agonist tracer; conditions: GST-tagged PPARγ-LBD, 10 concentrations 3 nM to 500 μM, triplicate
T1 sequence (P37231 238-503 limits assumed): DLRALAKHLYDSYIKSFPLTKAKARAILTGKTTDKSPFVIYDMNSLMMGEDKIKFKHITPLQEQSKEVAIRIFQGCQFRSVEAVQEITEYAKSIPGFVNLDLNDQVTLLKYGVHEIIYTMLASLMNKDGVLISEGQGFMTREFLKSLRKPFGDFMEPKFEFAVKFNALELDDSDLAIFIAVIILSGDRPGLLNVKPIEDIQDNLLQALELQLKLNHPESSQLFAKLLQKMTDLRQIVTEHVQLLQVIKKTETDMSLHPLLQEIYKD
Description: IC50 values for respective compounds were determined by competitive binding using time-resolved fluorescence resonance energy transfer (LanthaScreen, Invitrogen) on a Victor2 microplate reader (PerkinElmer). Briefly, a terbium labeled anti-GST antibody was used to label purified GST-tagged PPARγ-LBD (ligand binding domain). Energy transfer from terbium to the tracer, a fluorescent pan PPAR agonist, enabled read-out of each test compounds’s ability to displace the tracer. RFU values from dose-response curves (triplicate sampling) for test compounds as well as positive controls (rosiglitazone) were then analyzed using GraphPad Prism [33]. An unrestrained sigmoidal (one-binding site) dose-response curve was fitted to each data set by linear regression and allowing for determination of IC50 values.

PPARγ = test system: PPARγ; design: method as in PMID 23432662; conditions: earlier study; read-out: inhibitor activity IC50; cited from earlier work
[2] = test system: adipocyte differentiation; design: method as in PMID 23432662; conditions: earlier study; cited from earlier work
hPPARγ LBD [3] = target: T1, hPPARγ LBD; experiment: Nuclear receptor-LBD transactivation (Gal4-LBD luciferase reporter) in mouse embryo fibroblasts; format: cell-based; design: expressed in transfected cells; host or cells: mouse embryo fibroblasts (MEFs); conditions: for transactivation selectivity towards all three PPAR subtypes: compared with PPARα and PPARδ transactivation; for induction of transcriptional activation (in words): cell based transactivation assay
Description: Mouse embryo fibroblasts (MEFs) were propagated in Dulbeccos Modified Eagle’s Media (DMEM) supplemented with 10% FCS and antibiotics.
Cells (Hepa 1–6 were used for PPARα whereas MEFs were used for PPARγ, PPARδ and RXRα transfections) were transfected in solution by Metafectene (Biontex) lipofection, essentially according to the manufacturer’s instructions and seeded in media (MEM or DMEM supplemented with 10% fetal calf serum and antibiotics in 96-well dishes at 24000 cells/cm^2. The transfection plasmid mix included the Gal4-responsive luciferase reporter, the expression vector for the fusion between the Gal4 DNA-binding domain and the nuclear receptor ligand binding domains, and a CMV-Renilla luciferase normalization vector (pRL-CMV, Promega). Six hours after addition of transfection mix to the cells, the media was changed to media (MEM or DMEM) supplemented with vehicle (0.1% DMSO), positive control (1 μM Rosiglitazone, 30 nM GW7647, 1 μM L165041 or 0.2 μM LG1069 for PPARγ, PPARα, PPARδ and RXRα, respectively), or compound. Approx. 18 hours later, cells were harvested and lysates analyzed for Photinus and Renilla luciferase activity by luminometry. All data points were performed in at least triplicate and each sample measured in duplicate. Luminometer raw data was analyzed in Microsoft Excel spreadsheets and presented as column graphs depicting average values of triplicates and including standard deviations.

[4] = hPPARγ LBD ligand displacement IC50, TR-FRET
[5] = read-out: hPPARγ LBD ligand displacement IC50, TR-FRET

Structure (SMILES) | IC50 (hPPARγ LBD [1]; [4]) | also measured
Cc1cc(C)c([C@@H]2C(C#N)=C(N)Oc3n[nH]c(C)c32)cc1COc1ccc(Cl)cc1C (stereo in doubt) [compound 4] | 32 µM | IC50 (PPARγ): 30 µM; induction of adipocyte differentiation [2]: relatively poor induction of adipocyte differentiation
Cc1ccc(C2C(C#N)=C(N)Oc3[nH]nc(C)c32)c(C)c1 (centres unmarked) [10aa, 6-Amino-4-(2,4-dimethylphenyl)-3-methyl-1,4-dihydropyrano[2,3-c]pyrazole-5-carbonitrile] | 407 µM and > 100 µM | 
Cc1nn(-c2ccccc2)c2c1C(c1ccccc1)C(C#N)=C(N)O2 (centres unmarked) [10ad, 6-Amino-3-methyl-1,4-diphenyl-1,4-dihydropyrano[2,3-c]pyrazole-5-carbonitrile] | 215 µM and > 100 µM | 
Cc1ccc(C)c(C2C(C#N)=C(N)Oc3c2c(C)nn3-c2ccc(Cl)cc2)c1 (centres unmarked) [10ae, 6-Amino-1-(4-chlorophenyl)-4-(2,5-dimethylphenyl)-3-methyl-1,4-dihydropyrano[2,3-c]pyrazole-5-carbonitrile] | 0.52 µM and ≤ 1 µM | transactivation selectivity towards all three PPAR subtypes (hPPARγ LBD [3]): selective against PPARγ
Cc1ccccc1C1C(C#N)=C(N)Oc2c1c(C)nn2-c1ccc(Cl)cc1 (centres unmarked) [10af] |  | IC50 (hPPARγ LBD [1]; [5]): ≤ 1 µM; transactivation selectivity towards all three PPAR subtypes (hPPARγ LBD [3]): selective against PPARγ
Cc1nn(-c2ccccc2)c2c1C(c1ccc(Cl)cc1Cl)C(C#N)=C(N)O2 (centres unmarked) [10ag, 6-Amino-4-(2,4-dichlorophenyl)-3-methyl-1-phenyl-1,4-dihydropyrano[2,3-c]pyrazole-5-carbonitrile] | 14 µM | 
Cc1ccccc1C1C(C#N)=C(N)Oc2[nH]nc(Cc3ccccc3)c21 (centres unmarked) [10b, 6-Amino-3-benzyl-5(o-tolyl)-1,4-dihydropyrano[2,3-c]pyrazole-5-carbonitrile] | 15.7 µM | induction of transcriptional activation (in words) (hPPARγ LBD [3]): did not induce transcriptional activation
Cc1ccc(C2C(C#N)=C(N)Oc3[nH]nc(Cc4ccccc4)c32)c(C)c1 (centres unmarked) [10c, 6-Amino-3-benzyl-4-(2,4-dimethylphenyl)-1,4-dihydropyrano[2,3-c]pyrazole-5-carbonitrile] | 104 µM and > 100 µM | 
Cc1nn(-c2ccccc2)c2c1C(c1ccc(Cl)cc1Cl)C(C#N)=C(N)O2 (centres unmarked) [10f] |  | induction of transcriptional activation (in words) (hPPARγ LBD [3]): did not induce transcriptional activation
Cc1ccc(C)c(C2C(C#N)=C(N)Oc3[nH]nc(-c4ccccc4)c32)c1 (centres unmarked) [10g] |  | IC50 (hPPARγ LBD [1]; [5]): > 100 µM
N#CC1=C(N)Oc2[nH]nc(-c3ccccc3)c2C1c1ccccc1 (centres unmarked) [10h, 6-Amino-3,4-diphenyl-1,4-dihydropyrano[2,3-c]pyrazole-5-carbonitrile] | 173 µM and > 100 µM | 
Cc1ccc(C2C(C#N)=C(N)Oc3[nH]nc(-c4ccccc4)c32)c(C)c1 (centres unmarked) [10i, 6-Amino-4-(2,4-dimethylphenyl)-3-phenyl-1,4-dihydropyrano[2,3-c]pyrazole-5-carbonitrile] | 75 µM | 
CCCc1n[nH]c2c1C(c1ccc(C)cc1C)C(C#N)=C(N)O2 (centres unmarked) [10m, 6-Amino-4-(2,4-dimethylphenyl)-3-propyl-1,4-dihydropyrano[2,3-c]pyrazole-5-carbonitrile] | 14 µM | 
CCCc1n[nH]c2c1C(c1ccc(Cl)cc1)C(C#N)=C(N)O2 (centres unmarked) [10n, 6-Amino-4-(4-chlorophenyl)-3-propyl-1,4-dihydropyrano[2,3-c]pyrazole-5-carbonitrile] | 31 µM | 
CCCc1n[nH]c2c1C(c1cc(C)ccc1C)C(C#N)=C(N)O2 (centres unmarked) [10p, 6-Amino-4-(2,5-dimethylphenyl)-3-propyl-1,4-dihydropyrano[2,3-c]pyrazole-5-carbonitrile] | 91 µM | 
Cc1cc(C)c(C2C(C#N)=C(N)Oc3[nH]nc(C)c32)cc1COc1ccc(Cl)c2cccnc12 (centres unmarked) [10s, 6-Amino-4-(5-(((5-chloroquinolin-8-yl)oxy)methyl)-2,4-dimethylphenyl)-3-methyl-1,4-dihydropyrano[2,3-c]pyrazole-5-carbonitrile] | 14 µM | 
Cc1n[nH]c2c1C(c1ccc(Cl)cc1Cl)C(C#N)=C(N)O2 (centres unmarked) [10x, 6-Amino-4-(2,4-dichlorophenyl)-3-methyl-1,4-dihydropyrano[2,3-c]pyrazole-5-carbonitrile] | 59 µM | 
COc1ccc(C2C(C#N)=C(N)Oc3[nH]nc(C)c32)c(C)c1C (centres unmarked) [10y, 6-Amino-4-(4-methoxy-2,3-dimethylphenyl)-3-methyl-1,4-dihydropyrano[2,3-c]pyrazole-5-carbonitrile] | 87 µM | 
